Some test systems named below: Micrococcus luteus A270; Candida albicans MDM8; Escherichia coli SBS 363; Escherichia coli; Escherichia coli K99; Escherichia coli UB1005; Escherichia coli K88.
What all share (test): ≥ marks a high value that may be exact or a test limit, other limits are often not marked, values filed in µg/mL are converted to µM
Assay [1] relates to Escherichia coli ATCC 25922.
Assay [2] deals with Staphylococcus aureus ATCC 25923.
Assay [3] concerns Pseudomonas aeruginosa ATCC 9027.
Assay [4] relates to Candida albicans FRR 5580.
For assay [5], the system named is Staphylococcus aureus SH1000.
In assay [6] the test system is Streptococcus pneumoniae ATCC 700677.
The subject of assay [7] is Staphylococcus aureus ATCC 43300.
Assay [8] has as its system Klebsiella pneumoniae ATCC 700603.
Assay [9] relates to Staphylococcus aureus VRSA10.
Assay [10] has as its system Staphylococcus aureus NRS 17.
The test system of assay [11] is Staphylococcus aureus VRSA1.
For assay [12], the system named is Staphylococcus aureus NRS 1.
Assay [13] deals with Acinetobacter baumannii ATCC 19606.
Assay [14] deals with Pseudomonas aeruginosa ATCC 27853.
The subject of assay [15] is Pseudomonas aeruginosa FADDI-PA070.
In assay [16] the test system is Klebsiella pneumoniae ATCC BAA-2146.
Assay [17] concerns Serratia marcescens ATCC 4112.
The test system of assay [18] is Enterobacter cloacae beta-12.
Assay [19] concerns Bacillus megaterium ATCC 10778.
Assay [20] concerns Staphylococcus epidermidis ATCC 12228.
Assay [21] deals with Staphylococcus aureus ATCC 29213.
Assay [22] concerns Candida tropicalis IOC 4560.
In assay [23] the test system is Staphylococcus aureus ATCC BAA-1683.
Assay [24] relates to Lacticaseibacillus rhamnosus 1.0385.
For assay [25], the system named is Lacticaseibacillus rhamnosus 7469.
The subject of assay [26] is Lactiplantibacillus plantarum 8014.
Assay [27] relates to Lacticaseibacillus rhamnosus 1.0936.
For assay [28], the system named is Lacticaseibacillus rhamnosus 1.0911.
In assay [29] the test system is Salmonella enterica subsp. enterica serovar Typhimurium ATCC 14028.
Assay [30] concerns Salmonella enterica subsp. enterica serovar Pullorum C79-13.
For assay [31], the system named is Salmonella enterica subsp. enterica serovar Typhimurium C77-31.

In brackets after ≈: the same amount, converted by molar mass.

Usually MIC stands for the lowest concentration that inhibits growth of the organism. A lower MIC goes with a more susceptible organism.

For `CC(C)[C@H](NC(=O)[C@@H]1CCCN1C(=O)[C@H](Cc1ccccc1)NC(=O)[C@H](CCCCN)NC(=O)CNC(=O)[C@H](CCCCN)NC(=O)[C@H](Cc1c[nH]c2ccccc12)NC(=O)[C@H](Cc1c[nH]c2ccccc12)NC(=O)[C@H](CCCCN)NC(=O)[C@H](Cc1c[nH]c2ccccc12)NC(=O)[C@H](Cc1c[nH]c2ccccc12)NC(=O)[C@H](CCCN=C(N)N)NC(=O)[C@H](Cc1c[nH]c2ccccc12)NC(=O)[C@@H](NC(=O)[C@@H](NC(=O)[C@@H]1CCCN1C(=O)[C@@H](N)Cc1ccccc1)C(C)C)[C@@H](C)O)C(=O)N[C@H](C(=O)N[C@@H](Cc1c[nH]c2ccccc12)C(=O)N[C@@H](CCCN=C(N)N)C(=O)N[C@@H](Cc1c[nH]c2ccccc12)C(=O)N[C@@H](Cc1c[nH]c2ccccc12)C(=O)N[C@@H](CCCCN)C(=O)N[C@@H](Cc1c[nH]c2ccccc12)C(=O)N[C@@H](Cc1c[nH]c2ccccc12)C(=O)N[C@@H](CCCCN)C(=O)NCC(=O)O)[C@@H](C)O` [FPVTWRWWKWWKGKFPVTWRWWKWWKG], the MIC is 65.2 µM (≈ 250 µg/mL) in assay [1], 65.2 µM (≈ 250 µg/mL) in assay [2], above 65.2 µM in assay [3] and at least 32.6 µM in [4].

With `CC(C)C[C@H](NC(=O)[C@H](CC(C)C)NC(=O)[C@H](CCCCN)NC(=O)[C@H](CC(C)C)NC(=O)[C@H](CC(C)C)NC(=O)[C@H](CCCCN)NC(=O)[C@H](CCCCN)NC(=O)[C@H](CC(C)C)NC(=O)[C@H](CC(C)C)NC(=O)[C@H](CCCCN)NC(=O)[C@H](CC(C)C)NC(=O)[C@H](CC(C)C)NC(=O)[C@@H](N)CCCCN)C(=O)NCC(N)=O` [KLLKLLKKLLKLLG], the minimum inhibitory concentration (MIC) in assay [5] was at least 100 µM.

As to `CC[C@H](C)[C@H](NC(=O)[C@@H](N)CC(C)C)C(=O)NCC(=O)N[C@@H](CC(C)C)C(=O)N[C@H](C(=O)N[C@@H](CO)C(=O)N[C@@H](CCCCN)C(=O)NCC(=O)N[C@H](C(=O)N[C@H]1CSSC[C@@H](C(=O)N[C@@H](CCCCN)C(=O)N[C@@H](CCCCN)C(=O)N[C@H](C(=O)N[C@@H](CC(C)C)C(=O)N[C@@H](CCCCN)C(=O)N[C@@H](CCC(N)=O)C(N)=O)C(C)C)NC(=O)[C@H](C(C)C)NC(=O)[C@H]([C@@H](C)O)NC(=O)[C@H](CCCCN)NC(=O)[C@H](C(C)C)NC(=O)[C@H](CC(C)C)NC(=O)[C@H](C(C)C)NC1=O)[C@@H](C)O)C(C)C` [LIGLVSKGTCVLVKTVCKKVLKQ], the MIC in assay [6] is 9.6 µM (≈ 23.6 µg/mL); in assay [7], above 9.6 µM; in assay [8] it was above 9.6 µM; in assay [9], 9.6 µM (≈ 23.6 µg/mL); in [10], 9.6 µM (≈ 23.6 µg/mL); in assay [11], 9.6 µM (≈ 23.6 µg/mL). The minimal inhibitory concentration (MIC) in assay [1] was above 9.6 µM; in assay [12], 9.6 µM (≈ 23.6 µg/mL); in assay [13] it was above 9.6 µM; in [14] it was above 9.6 µM; in assay [15], 9.6 µM (≈ 23.6 µg/mL); in assay [16], 9.6 µM (≈ 23.6 µg/mL).

Turning to `CC(C)C[C@H](NC(=O)[C@H](C)NC(=O)CNC(=O)[C@H](CC(C)C)NC(=O)[C@@H](N)Cc1ccccc1)C(=O)N[C@@H](Cc1c[nH]c2ccccc12)C(=O)N[C@@H](CC(N)=O)C(=O)N[C@H](C(=O)N[C@@H](CCCCN)C(=O)N[C@@H](CCCCN)C(=O)N[C@@H](CO)C(=O)N[C@H](C(=O)N[C@@H](Cc1ccccc1)C(N)=O)C(C)C)C(C)C` [FLGALWNVKKSVF], the MIC in the assay on Micrococcus luteus A270 is at least 50 µM; in [17], at least 50 µM; in assay [18], at least 50 µM; in [19], at least 50 µM; in assay [20], above 50 µM; in assay [21] it was above 50 µM. Moreover, the MIC (in [22]; in the assay with Candida albicans MDM8; against Escherichia coli SBS 363) was at least 50 µM in each case.

As to `CC(C)C[C@H](NC(=O)[C@H](CC(C)C)NC(=O)[C@H](CCCCN)NC(=O)[C@H](Cc1c[nH]c2ccccc12)NC(=O)[C@H](Cc1c[nH]c2ccccc12)NC(=O)[C@@H](N)CCCCN)C(=O)N[C@@H](CCCN=C(N)N)C(=O)N[C@@H](CCCCN)C(=O)N[C@@H](CCCCN)C(=O)N[C@@H](CCCN=C(N)N)C(N)=O` [KWWKLLRKKR], the results for the MIC (in [23]; in assay [2]; in the assay on Escherichia coli) were at least 43.3 µM, 21.7 µM (≈ 31.2 µg/mL) and 173 µM (≈ 250 µg/mL), respectively.

With `C[C@H](NC(=O)[C@H](C)NC(=O)[C@H](Cc1c[nH]c2ccccc12)NC(=O)[C@H](Cc1c[nH]c2ccccc12)NC(=O)[C@H](Cc1c[nH]c2ccccc12)NC(=O)[C@H](CCCN=C(N)N)NC(=O)[C@@H]1CSSC[C@H](N)C(=O)N[C@@H](C)C(=O)N[C@@H](CO)C(=O)N[C@@H](Cc2ccc(O)cc2)C(=O)N[C@@H](Cc2ccccc2)C(=O)N1)C(N)=O` [CASYFCRWWWAA], the MIC was at least 64 µM in assay [24]; above 64 µM in assay [7]; at least 64 µM with Escherichia coli K99; at least 64 µM in assay [25]; at least 64 µM in assay [26]; at least 64 µM in assay [27]. Besides, the MIC in [1] is above 64 µM; in [28], at least 64 µM; in assay [29], above 64 µM; in assay [2] it was above 64 µM; against Escherichia coli UB1005, at least 64 µM; in [30], at least 64 µM. In addition, the minimum inhibitory concentration (MIC) in assay [31] is at least 64 µM; in assay [14] it was above 64 µM; in the assay on Escherichia coli K88, at least 64 µM; in assay [21], above 64 µM.

Values taken from DBAASP.
